Laboratory results taken from US20260248852A1, “SYNTHETIC ANTIGEN RECEPTORS FOR COVALENT IMMUNE RECRUITERS AND METHODS AND USES THEREOF” (McMaster University, priority 2022, published 2026).
“Also recorded” adds a separate entry of the source.

Key:
[1] = tested on: Anti-DNP DAP12-SAR GDT cells; assay: Labeling time course of Anti-DNP DAP12-SAR GDT cells with CIR/(N)CIR; type: binding, human; details: 10 nM, 100 nM, 1 uM, up to 3 hours
Procedure: (§1) Engineered GDT-cells: PBMCs were seeded at 4E6 cells per well in a 24 well G-Rex plate in the presence of 1 ug/ml zoledronate and 1.5 ng/ml human IL2. Three days later, the cells were incubated overnight in a 24 well non tissue culture treated plate that was pre coated with retronectin and retrovirus supernatant containing viruses encoding either the Anti-DNP DAP12-SAR or the Anti-DNP CD28 CAR. The cells were then transferred back to the G-Rex plate and cultured for a further 11 days at which point, the cell product was collected, CD4/CD8 T cells were removed by magnetic selection and the purified engineered GDT cells were cryopreserved.
(§2) Flow cytometry: To assess the fraction of GDT cells which express the Anti-DNP synthetic antigen receptor, the cells were stained with the following antibodies/fluorophores: Myc biotin, streptavidin PE, vδ2 APC, TCR ab FITC, and CD3 BV605. The CD3 BV605, TCR ab FITC, and Vδ2 APC were used to specifically gate on Vδ2 GDT-cells. The anti-Myc biotin and streptavidin PE secondary were used to assess transduction level.
(§3) For labeling time-course studies, T-cells were incubated with varying concentrations (10 nM, 100 nM, 1 uM) of either DNP-Acyl Imidazole-Desthiobiotin or DNP-Desthiobiotin for different time periods up to 3 hours at room temperature in FACs buffer. […]

[2] = tested on: Anti-DNP TAC T cells (anti-DNP scFv containing T-cells); assay: Labeling of Anti-DNP TAC ABT cells with CIR/(N)CIR, Streptavidin-PE flow cytometry; type: binding, human; details: 1 uM; for labeling time course (binding): 10 nM, 100 nM, up to 3 hours at room temperature, washed; for covalent binding and labeling of T cells (Streptavidin-PE): Anti-DNP TAC ABT cells, overnight at 4 degrees, washed 3 times
Procedure: (§4) Labeling with CIR/(N)CIR: ABT-cells were labelled overnight at 4 degrees in T-cell media with 1 uM of either DNP-Acyl Imidazole-Desthiobiotin or DNP-Desthiobiotin. DNP-Glycine competitor was also added to some conditions with at 200 uM as a competitor to assess labelling specificity. After the overnight incubation the samples were washed 3 times with FACs buffer to remove any non-covalently bound molecule and stained with Streptavidin-PE to assess labelling. The samples were also stained with near IR Live/Dead, anti-CD4 Pacific Blue, and anti-CD8 Alexa fluor 700 to allow for appropriate gating on live ABT-cells. The samples were assessed for Streptavidin-PE labelling via flow cytometry.
For labeling time-course studies, T-cells were incubated with varying concentrations (10 nM, 100 nM, 1 uM) of either DNP-Acyl Imidazole-Desthiobiotin or DNP-Desthiobiotin for different time periods up to 3 hours at room temperature in FACs buffer. The “0” hour time point was the final time point and accounts for the 5-minute period needed to spike in CIR/(N)CIR and spin down to stop labelling. After adding DNP-Acyl Imidazole-Desthiobiotin or DNP-Desthiobiotin to all time points the cells were washed 3 times and stained for flow cytometry analysis as described above.
as §4, with “either DNP-SuFEx-Desthiobiotin,” for “either”, “αβ T-cells.” for “ABT-cells.”

[3] = tested on: Anti-DNP CD28 CAR GDT cells; assay: Labeling time course of Anti-DNP CD28 CAR GDT cells with CIR/(N)CIR; type: binding, human; details: 10 nM, 100 nM, 1 uM, up to 3 hours
Procedure: as §1, §2, §3

[4] = tested on: HEK293-PSMA cells (PSMA expressing); assay: Cytokine production of engineered ABT cells following stimulation with HEK293-PSMA cells; type: cell-based, human
Procedure: Measuring cytokine production following stimulation with HEK-293 cells: In a 96 well round bottom plate, 4E5 HEK293-PSMA cells (PSMA expressing) or HEK293-WT cells were incubated with 4E5 Anti-DNP TAC ABT cells, Anti-DNP DAP12 SAR ABT cells, or Anti-CD28 CAR ABT-cells. […] To stop the activation 20 mM EDTA was added and incubated for 15 minutes. Cells were stained for surface expression of CD4 and CD8, fixed and permeabilized in Cytofix/Cytoperm buffer, and stained with APC-conjugated mouse anti-human interferon-gamma, and FITC-conjugated mouse anti-human tumor necrosis factor-alpha. Cells were then run on the Beckman Coulter Cytoflex flow cytometer. The percent of cells positive for tumor necrosis factor-alpha and interferon-gamma for CD4 and CD8 T-cell populations were graphed separately showing the same overall trends.

[5] = tested on: PSMA transduced HEK-293 cells; assay: IFN-gamma / TNF-alpha production of Anti-DNP TAC ABT cells following stimulation with HEK-293 PSMA cells; type: cell-based, human; details: Anti-DNP TAC ABT cells prelabelled 6 hours; co-culture 4 hours
Procedure: The cells were co-cultured together for 4 hours at 37 degrees. Golgi plug was added prior to the co-incubation to prevent cytokine secretion. To stop the activation 20 mM EDTA was added and incubated for 15 minutes. The cells were spun down, media was aspirated, and the cells were stored in 200 μL of cRPMI overnight at 4 degrees. The next day, the cells were surface stained with anti-CD4 Pacific Blue, anti-CD8 Alexa Fluor 700, and anti-NGFR Viobright FITC. The cells were then fixed and permeabilized using a fix/perm buffer solution. The cells were then intracellularly stained with anti-CD3 BV605, anti-TNF-alpha PE-CY7, and anti-IFN-gamma APC. Cells were then run on the Beckman Coulter Cytoflex flow cytometer. The percent of cells positive for TNF-alpha and IFN-gamma, as well as cells positive for both were recorded in the table for the separate CD4 and CD8 T-cell populations.

[6] = tested on: PSMA transduced HEK-293 cells; assay: CD69 upregulation of DNP-TAC T cells following stimulation with HEK-293 PSMA cells; type: cell-based, human; details: DNP-TAC T cells pre labelled 6 hours; co-culture overnight
Procedure: The cells were co-cultured together overnight at 37 degrees. To stop the activation, 20 mM EDTA was added and incubated for 15 minutes. The cells were spun down, media was aspirated, and the cells were stored in 200 μL of cRPMI at 4 degrees prior to staining. The cells were stained with Live-Dead Zombie Aqua, anti-CD3 BV605, anti-CD4 Pacific Blue, anti-CD8 Alexa Fluor 700, anti-NGFR Viobright FITC, and anti-CD69 BV650. Upon staining the cells were run on the Beckman Coulter Cytoflex flow cytometer and analyzed for CD69 expression.

293-PSMA cells [7] = assay: CD69 and Nur77 expression of activated ABT cells with 293-PSMA cells; type: cell-based, human; details: Anti-DNP TAC-T cells; 10 nM and 1 nM
Text: Cells were stained for surface marker expression via Pacific Blue-conjugated mouse anti-human CD4, and AlexaFluor700-conjugated mouse anti-human CD8a, VioBright FITC-conjugated mouse anti-human NGFR, and anti-huCD69, fixed and permeabilized in Permiabilization concentrate diluted in permeabilization diluent, and stained intracellularly with PE-conjugated mouse anti-mouse Nur77.

[8] = tested on: PSMA-positive LNCaP cells; assay: Anti-DNP GDT cell mediated killing of LNCaP cells (Incucyte); type: cell-based, human
Procedure: Measuring T cell mediated killing of LNCaP cells: LNCaP prostate cancer cells, which are prostate specific membrane antigen (PSMA) positive, were engineered with Nuclight Red lentivirus to produce cells with nuclear localized red fluorescence to allow for ease of imaging in these experiments. […] Samples were run in triplicate. The number of LNCaP cells per well at each time point was calculated using the Incucyte cell by cell analysis software and plotted. The area under the growth curve was used as a metric for tumor cell growth for this figure. The larger the area, the greater the tumor cell growth that occurred over the 3 days. The area under the curve for the LNCaP control and each condition were used to calculate the % cytotoxicity.

[9] = tested on: PSMA-positive LNCaP cells; assay: Anti-DNP TAC ABT cell mediated killing of LNCaP cells (Incucyte); type: cell-based, human
Procedure: Measuring T cell mediated killing of LNCaP cells: LNCaP prostate cancer cells, which are prostate specific membrane antigen (PSMA) positive, were engineered with Nuclight Red lentivirus to produce cells with nuclear localized red fluorescence to allow for ease of imaging in these experiments. […] The 3 components were co-cultured for 3 days with 4 images per well taken every 6 hours. Samples were run in triplicate. The number of LnCap cells per well at each time point was calculated using the Incucyte cell by cell analysis software and plotted. The area under the growth curve was used as a metric for tumor cell growth for this figure. The larger the area, the greater the tumor cell growth that occurred over the 3 days. The area under the curve for the LnCap control and each condition were used to calculate the % cytotoxicity.

293-PSMA cells [10] = assay: Proliferation of adapter functionalized engineered ABT cells (CellTrace Violet); type: cell-based, human
Procedure: Each engineered T cell was also cultured in media alone as a control to compare to. All proliferation assay samples were incubated for 3 days at 37° C. and 5% CO2. Cells were then stained with Live/Dead Fixable Near-IR stain, PerCP-Cy5.5-conjugated mouse anti-human CD8a, Alexa Fluor 700-conjugated mouse anti-human CD4, VioBright FITC-conjugated mouse anti-human NGFR, and BV605-conjugated mouse anti-human CD3. Flow cytometry data were acquired.

## CC1NC(=O)NC1CCCCCC(=O)NCCOCCOCCOCCOC(=O)n1cnc(CCNC(=O)CNc2ccc([N+](=O)[O-])cc2[N+](=O)[O-])c1 (stereo not shown) [DNP-Acyl Imidazole-Desthiobiotin]
[1]
  labeling time course (binding): rapid covalent binding
[2]
  labeling time course (binding): rapid covalent binding
  time to maximal loading of DNP-TAC T cells: several hours
  time until all Anti-DNP TAC T cells are loaded: ≤ 30 min
  covalent binding and labeling of T cells (Streptavidin-PE): can covalently bind and label
[3]
  labeling time course (binding): rapid covalent binding

## CC1NC(=O)NC1CCCCCC(=O)NCCOCCOC(=O)NCCOCCNC(=O)CNc1ccc([N+](=O)[O-])cc1[N+](=O)[O-] (stereo not shown) [DNP-Desthiobiotin, reference compound]
[1]
  labeling time course (binding): minimal binding
[2]
  labeling time course (binding): complete absence of binding
  covalent binding and labeling of T cells (Streptavidin-PE): cannot
[3]
  labeling time course (binding): minimal binding

## O=C(O)CC[C@H](NC(=O)N[C@@H](CCCCNC(=O)NCCOCCOCCOCCOCCOCCOCCOCCOC(=O)NCCOCCNC(=O)CNc1ccc([N+](=O)[O-])cc1[N+](=O)[O-])C(=O)O)C(=O)O [PSMA-(N)CIR, DNP-Glutamate-Urea-Lysine, reference compound]
[4]; CD28-CAR T cells, highest concentration (100 nM)
  cytokine production: equivalent levels of cytokine production
[4]; DAP12-SAR T cells, 1, 10, 100 nM
  cytokine production: some cytokine production was observed with higher concentrations; also recorded: could be activated by both CIR and (N)CIR
[4]; TAC T cells, 1, 10, 100 nM
  cytokine production: no cytokine production
[5]
  production of IFN-gamma and TNF-alpha: failed to demonstrated any evidence of activation
[6]
  T cell activation based on upregulation of CD69: failed to demonstrated any evidence of activation
293-PSMA cells [7]
  T cell activation (Nur77, CD69): only the PSMA-CIR could elicit T cell activation
[8]; Anti-DNP CD28 CAR GDT cells, 10 nM or 1 nM adapter
  killing of LNCaP cells at limiting concentration: inability of the PSMA-(N)CIR to effectuate killing
[8]; Anti-DNP CD28 CAR GDT cells, 15 nM to 250 nM
  tumor killing over a range of concentrations: diminished at lower levels
[8]; Anti-DNP CD28 CAR GDT cells, 125 nM adapter
  killing of LNCaP cells: could direct T cell cytotoxicity; also recorded: displayed tumor growth control
[8]; Anti-DNP DAP12-SAR GDT cells, 125 nM adapter
  killing of LNCaP cells: unable to direct T cell cytotoxicity
[8]; Anti-DNP DAP12 SAR GDT cells
  adapter concentration at which tumor killing is observed: > 125 nM
[8]; Anti-DNP DAP12 SAR GDT cells, 250 nM (highest concentration)
  killing of LNCaP cells: only weak killing
[8]; Anti-DNP DAP12 SAR and Anti-DNP CD28 CAR GDT cells, 1 uM adapter for 6 hours, washed, then co-culture
  killing of LNCaP cells after preincubation and wash: Only the T cells incubated with the PSMA-CIR retained the ability to kill
[8]; CD28 CAR GDT cells, 10 nM adapter
  killing of LNCaP cells: unable to elicit any killing
[8]; both Anti-DNP DAP12-SAR GDT cells and Anti-DNP CD28 CAR GDT cells, 15.6 nM-250 nM
  LNCaP killing over a range of concentrations: killing diminished with lower concentrations
[9]; E:T 8:1, 15.63 nM to 125 nM, 3 days
  killing of LNCaP cells: unable to direct T cell cytotoxicity; also recorded: did not promote killing of LNCaP cells at any concentration
[9]; E:T 8:1, 3 days
  concentration effective at engaging tumor killing: > 125 nM
293-PSMA cells [10]; Anti-DNP12 SAR T cells, 1 nM or 10 nM
  T cell proliferation (percent divided): did not proliferate
293-PSMA cells [10]; Anti-DNP DAP12 SAR T cells, 1 nM, 10 nM, or 100 nM
  T cell proliferation (percent divided): little proliferation
293-PSMA cells [10]; Anti-DNP DAP12 SAR T cells, 100 nM
  T cell proliferation (percent divided): modest proliferation
293-PSMA cells [10]; Anti-DNP TAC T cells, 1, 10, 100 nM, 3 days
  T cell proliferation (percent divided): failed to proliferate above background; also recorded: little proliferation
